Experimental data: US9434711B2 (Janssen Pharmaceutica, NV, priority 2007, dated 2016)
Where two headings read alike, the source gives them in different places.

Biological target: canine TRPM8 (Canis lupus familiaris, UniProt Q1A7N1)
Assay: In Vitro Canine TRPM8 Functional Assay (Ca2+ fluorescence, icilin activation)
Format: cell-based
Conditions: for IC50: read-out: IC50; for inhibition at 0.2 µM: read-out: % Inh @ 0.2; for inhibition at 0.5 µM: read-out: % Inh @ 0.5
Method in brief: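 Eight-point dose-response curves in quadruplicate gave EC50 or IC50 values from a Ca2+-sensitive dye assay in HEK293 cells stably carrying canine TRPM8. Icilin, dosed near its 80% maximal level, followed a 5 min compound exposure.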

[1] = HEK293 cells stably expressing canine TRPM8, icilin activation, eight-point dose-response
[2] = compound at 0.2 μM, canine TRPM8, icilin activation
[3] = compound at 0.5 μM, canine TRPM8, icilin activation
[4] = 0.2 μM compound, HEK293 cells stably expressing canine TRPM8, icilin activation
[5] = HEK293 cells stably expressing canine TRPM8, icilin activation, average of two or more determinations

Sequence of canine TRPM8 (Q1A7N1 1-1104): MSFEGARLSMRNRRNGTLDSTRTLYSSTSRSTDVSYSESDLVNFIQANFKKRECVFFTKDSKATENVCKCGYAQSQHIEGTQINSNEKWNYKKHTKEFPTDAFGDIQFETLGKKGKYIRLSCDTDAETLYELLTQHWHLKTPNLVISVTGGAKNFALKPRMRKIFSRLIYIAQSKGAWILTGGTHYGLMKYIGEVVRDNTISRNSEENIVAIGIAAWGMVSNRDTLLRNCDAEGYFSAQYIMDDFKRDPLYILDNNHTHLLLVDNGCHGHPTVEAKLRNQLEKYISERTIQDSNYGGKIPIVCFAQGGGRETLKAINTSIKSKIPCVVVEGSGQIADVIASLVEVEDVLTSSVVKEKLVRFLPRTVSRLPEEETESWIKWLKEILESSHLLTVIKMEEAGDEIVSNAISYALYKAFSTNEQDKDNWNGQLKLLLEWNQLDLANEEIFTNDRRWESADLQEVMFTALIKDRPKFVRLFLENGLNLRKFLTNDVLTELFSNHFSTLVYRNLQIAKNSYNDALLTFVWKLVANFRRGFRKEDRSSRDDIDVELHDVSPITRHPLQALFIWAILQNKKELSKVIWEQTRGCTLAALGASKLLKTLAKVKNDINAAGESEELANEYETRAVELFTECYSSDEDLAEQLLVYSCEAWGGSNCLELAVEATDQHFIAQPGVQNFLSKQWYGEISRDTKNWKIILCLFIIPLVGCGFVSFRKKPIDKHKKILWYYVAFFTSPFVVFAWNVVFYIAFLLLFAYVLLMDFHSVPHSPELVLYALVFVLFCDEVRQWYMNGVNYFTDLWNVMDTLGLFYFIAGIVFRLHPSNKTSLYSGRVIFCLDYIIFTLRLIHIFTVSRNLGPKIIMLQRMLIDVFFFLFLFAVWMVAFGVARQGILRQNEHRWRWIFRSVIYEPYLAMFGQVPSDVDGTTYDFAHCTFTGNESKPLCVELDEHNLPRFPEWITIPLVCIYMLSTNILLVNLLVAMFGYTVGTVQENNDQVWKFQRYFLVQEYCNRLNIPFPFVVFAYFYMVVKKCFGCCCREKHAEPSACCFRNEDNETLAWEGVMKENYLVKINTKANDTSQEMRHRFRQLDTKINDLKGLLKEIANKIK

IC50 [1] [nM]	inhibition at 0.2 µM [2] [%]	Structure (SMILES)	other results
1.6	95	Cc1c(N(Cc2ccc(F)c(C(F)(F)F)c2)S(=O)(=O)c2ccc(C(=O)O)c(F)c2)sc2ccccc12 [Compound 775, N-(3-Methyl-benzo[b]thiophen-2-yl)-N-(4-fluoro-3-trifluoromethyl-benzyl)-3-fluoro-4-carboxy-benzenesulfonamide]	–
107	87	Cc1c(N(Cc2cccc(OC(F)(F)F)c2)S(=O)(=O)CCCn2ccnc2)sc2ccccc12 [Compound 778, N-(3-Methyl-benzo[b]thiophen-2-yl)-N-(3-trifluoromethoxy-benzyl)-3-imidazol-1-yl-propane-1-sulfonamide]	–
3	96	Cc1c(N(Cc2ccc(F)c(C(F)(F)F)c2)S(=O)(=O)c2ccc(-c3csnn3)cc2)sc2ccccc12 [Compound 69, N-(4-Fluoro-3-trifluoromethyl-benzyl)-N-(3-methyl-benzo[b]thiophen-2-yl)-4-[1,2,3]thiadiazol-4-yl-benzenesulfonamide]	–
–	15	CCCCN(c1sc2ccccc2c1NC(C)=O)S(=O)(=O)c1ccc(C(=O)OC)cc1 [Compound 500, N-(3-Acetylamino-benzo[b]thiophen-2-yl)-N-(butyl)-4-carbomethoxy-benzenesulfonamide]	–
8	–	Cc1c(N(Cc2ccc(F)c(F)c2)S(=O)(=O)c2cccc(F)c2)sc2ccccc12 [Compound 127, N-(3,4-Difluoro-benzyl)-N-(3-methyl-benzo[b]thiophen-2-yl)-3-fluoro-benzenesulfonamide]	inhibition at 0.5 µM [3]: 98%
–	53.1	Cc1c(N(Cc2ccc(F)c(C(F)(F)F)c2)S(=O)(=O)C(F)(F)F)sc2ccccc12 [Compound 664, C,C,C-Trifluoro-N-(4-fluoro-3-trifluoromethyl-benzyl)-N-(3-methyl-benzo[b]thiophen-2-yl)-methanesulfonamide]	–
–	20	CCS(=O)(=O)N(CCOC)c1sc2ccccc2c1C [Compound 105, N-(2-Methoxy-ethyl)-N-(3-methyl-benzo[b]thiophen-2-yl)-ethanesulfonamide]	–
85	102	CS(=O)(=O)Nc1ccc(S(=O)(=O)N(Cc2ccc(F)c(C(F)(F)F)c2)c2cc3ccccc3s2)cc1 [Compound 652, N-(Benzo[b]thiophen-2-yl)-N-(4-fluoro-3-trifluoromethyl-benzyl)-4-methanesulfonylamino-benzenesulfonamide]	–
30	80	COC(=O)c1ccc(S(=O)(=O)N(Cc2ccc(F)c(C(F)(F)F)c2)c2sc3ccccc3c2C=O)cc1 [Compound 211, N-(3-Formyl-benzo[b]thiophen-2-yl)-N-(4-fluoro-3-trifluoromethyl-benzyl)-4-carbomethoxy-benzenesulfonamide]	–
112	–	COc1ccccc1CN(c1cc2ccccc2s1)S(=O)(=O)c1ccccc1 [Compound 47, N-(Benzo[b]thiophen-2-yl)-N-(2-methoxy-benzyl)-benzenesulfonamide]	inhibition at 0.5 µM [3]: 97%
–	14	O=S(=O)(c1ccc(-c2nnn[nH]2)cc1)N(CCC(F)(F)F)c1cc2ccccc2s1 [Compound 571, N-(Benzo[b]thiophen-2-yl)-N-(3,3,3-trifluoro-propyl)-4-(1H-tetrazol-5-yl)-benzenesulfonamide]	–
–	96	CCCN(c1sc2ccccc2c1C)S(=O)(=O)c1ccc(C(=O)O)cc1 [Compound 404, N-(3-Methyl-benzo[b]thiophen-2-yl)-N-(propyl)-4-carboxy-benzenesulfonamide]	–
13	98	O=Cc1c(N(Cc2ccc(F)c(F)c2)S(=O)(=O)c2ccccc2)sc2ccccc12 [Compound 206, N-(3,4-Difluoro-benzyl)-N-(3-formyl-benzo[b]thiophen-2-yl)-benzenesulfonamide]	–
88	97	CCCCN(c1cc2ccccc2s1)S(=O)(=O)c1ccc(-c2nnn[nH]2)cc1 [Compound 449, N-(Benzo[b]thiophen-2-yl)-N-(butyl)-4-(1H-tetrazol-5-yl)-benzenesulfonamide]	–
4	102	O=c1[nH]c(-c2ccc(S(=O)(=O)N(Cc3ccc(F)c(C(F)(F)F)c3)c3sc4ccccc4c3Cl)cc2)no1 [Compound 512, N-(3-Chloro-benzo[b]thiophen-2-yl)-N-(4-fluoro-3-trifluoromethyl-benzyl)-4-(5-oxo-4,5-dihydro-[1,2,4]oxadiazol-3-yl)-benzenesulfonamide]	–
–	15	N#Cc1cccc(S(=O)(=O)N(CCC2CC2)c2cc3ccccc3s2)c1 [Compound 575, N-(Benzo[b]thiophen-2-yl)-N-(2-cyclopropyl-ethyl)-3-cyano-benzenesulfonamide]	–
122	–	O=S(=O)(c1cccnc1)N(CCCC(F)(F)F)c1sc2ccccc2c1Cl [Compound 408, N-(3-Chloro-benzo[b]thiophen-2-yl)-N-(4,4,4-trifluoro-butyl)-3-pyridin-3-yl-sulfonamide]	% Inh @ 0.2 (μM) [2]: 78%
–	–	Cc1c(N(Cc2ccc(OC(F)(F)F)cc2)S(=O)(=O)c2ccc(N3CCOCC3)cc2)sc2ccccc12 [Compound 800, N-(3-Methyl-benzo[b]thiophen-2-yl)-N-(4-trifluoromethoxy-benzyl)-4-morpholino-benzenesulfonamide]	inhibition at 0.2 µM [4]: 102%; IC50 [5]: 6.8 nM
12.6	97	CCCCN(c1sc2ccccc2c1Br)S(=O)(=O)CC [Compound 261, N-(3-Bromo-benzo[b]thiophen-2-yl)-N-(butyl)-ethanesulfonamide]	–
8	102	CC(=O)C1=C(N(Cc2ccc(F)c(C(F)(F)F)c2)S(=O)(=O)c2ccccc2)S(=O)(=O)c2ccccc21 [Compound 460, N-(3-Acetyl-1,1-dioxo-1H-benzo[b]thiophen-2-yl)-N-(4-fluoro-3-trifluoromethyl-benzyl)-benzenesulfonamide]	–
11.4	101	CCS(=O)(=O)N(Cc1ccc(F)c(F)c1)c1sc2ccccc2c1C=O [Compound 212, N-(3,4-Difluoro-benzyl)-N-(3-formyl-benzo[b]thiophen-2-yl)-ethanesulfonamide]	–
15	97	CSCCN(c1sc2ccccc2c1C)S(=O)(=O)c1ccccc1 [Compound 98, N-(3-Methyl-benzo[b]thiophen-2-yl)-N-(2-methylsulfanyl-ethyl)-benzenesulfonamide]	–
–	–	Cc1c(N(Cc2ccc(OC(F)(F)F)cc2)S(=O)(=O)c2ccc(-c3nsc(=O)[nH]3)cc2)sc2ccccc12 [Compound 810, N-(3-Methyl-benzo[b]thiophen-2-yl)-N-(4-trifluoromethoxy-benzyl)-4-(5-oxo-4,5-dihydro-[1,2,4]thiadiazol-3-yl)-benzenesulfonamide]	inhibition at 0.2 µM [4]: 102%; IC50 [5]: 1 nM
46	100	O=c1[nH]c(-c2ccc(S(=O)(=O)N(CCCC(F)(F)F)c3sc4ccccc4c3Br)cc2)no1 [Compound 514, N-(3-Bromo-benzo[b]thiophen-2-yl)-N-(4,4,4-trifluoro-butyl)-4-(5-oxo-4,5-dihydro-[1,2,4]oxadiazol-3-yl)-benzenesulfonamide]	–
0.6	101	CCS(=O)(=O)N(Cc1ccc(F)c(C(F)(F)F)c1)c1sc2ccccc2c1C(C)(C)O [Compound 227, N-(4-Fluoro-3-trifluoromethyl-benzyl)-N-[3-(1-hydroxy-1-methyl-ethyl)-benzo[b]thiophen-2-yl]-ethanesulfonamide]	–
6	–	Cc1c(N(Cc2ccc(OC(F)(F)F)cc2)S(=O)(=O)c2ccsc2)sc2ccccc12 [Compound 16, N-(3-Methyl-benzo[b]thiophen-2-yl)-N-(4-trifluoromethoxy-benzyl)-thiophene-3-sulfonamide]	inhibition at 0.5 µM [3]: 99%
41.6	93	COc1ccc(S(=O)(=O)N(CCCC(F)(F)F)c2sc3ccccc3c2C)c2cccnc12 [Compound 356, N-(3-Methyl-benzo[b]thiophen-2-yl)-N-(4,4,4-trifluoro-butyl)-8-methoxyquinolin-5-ylsulfonamide]	–

Structure (SMILES)	IC50 [1] [nM]	inhibition at 0.2 µM [2] [%]	other results
CC(C)(O)c1c(N(Cc2ccc(OC(F)(F)F)cc2)S(=O)(=O)c2ccc(C(=O)[O-])cc2)sc2ccccc12.[Na+] [Compound 781, Sodium, N-(3-(1-Hydroxy-1-methyl-ethyl)-benzo[b]thiophen-2-yl)-N-(4-trifluoromethoxy)benzyl-4-carboxy-benzenesulfonamide]	3	–	% Inh @ 0.2 (μM) [2]: 102%
CCCCN(c1sc2ccccc2c1Cl)S(=O)(=O)c1ccc(C2=NOS(=O)N2)cc1 (stereo not shown) [Compound 485, N-(3-Chloro-benzo[b]thiophen-2-yl)-N-(butyl)-4-(3H-[1,2,3,5]oxathiadiazole-2-oxide)-benzenesulfonamide]	21	–	% Inh @ 0.2 (μM) [2]: 96%
Cc1ccccc1CN(c1cc2ccccc2s1)S(=O)(=O)c1ccccc1 [Compound 62]	58.1	–	% Inh @ 0.5 (μM) [3]: 98%
CCS(=O)(=O)N(CC1CCCN1C(=O)OC(C)(C)C)c1sc2ccccc2c1C (stereo not shown) [Compound 114, N-(3-Methyl-benzo[b]thiophen-2-yl)-N-{[1-(carbo-tert-butoxy)pyrrolidin-2-yl]-methyl}-ethanesulfonamide]	51.1	93	–
Cc1c(N(CCC2CC2)S(=O)(=O)c2ccc(C3=NOS(=O)N3)cc2)sc2ccccc12 (stereo not shown) [Compound 611, N-(3-Methyl-benzo[b]thiophen-2-yl)-N-(cyclopropyl-ethyl)-4-(3H-[1,2,3,5]oxathiadiazole-2-oxide)-benzenesulfonamide]	14.6	–	% Inh @ 0.2 (μM) [2]: 101%
